Key:
[1] = Fluorescence of 6-amino-1-naphthalenesulfonamides and substrates; type: physicochemical; conditions: for Relative Fluorescence: TBS, pH 7.4, 22°C., 1 μM, relative to ANSNH(i-C4 H9), excitation 352 nm, emission 470 nm; for Emission Maxima: free fluorophore
Description: Each of the 6-amino-1-naphthalenesulfonamide detecting groups, i.e., the free fluorophores, have excitation maxima near 350 nm with emission maxima ranging from 465 to 476 nm. Fluorescent measurements show a 2.2 fold range in the intensities of the fluorescent signals among the fifteen synthesized compounds. The 6-peptidylamino-1-naphthalenesulfonamide fluorogenic substrates have a relative fluorescent intensity at 470 nm which is less than 0.1% of that of the respective free fluorophore. Detection of the free fluorophore can be reliably achieved (>2× background) at a concentration of about 10^-9 M in the presence of about 10^-6 fluorogenic substrate.
^a Measured in TBS, pH 7.4. 22°C.. Concentration of ANSNR
R2 = 1 μM. Fluorescence is expressed relative of ANSNH(i-C4
H9). Excitation wavelength = 352 nm, Emission wavelength = 470 nm.

thrombin (IIa) = molecular target: T1, thrombin (IIa) (Homo sapiens, UniProt P00734); assay: Fluorogenic enzyme assay (Example 5); type: biochemical; set-up: key to Hydrolysis kinetic constants, IIa (symbol b): Slow substrate hydrolysis, no kinetic constants calculated; conditions: for Hydrolysis kinetic constants, IIa (symbol b) / Km / kcat /Km, IIa / kcat, IIa: Table 7; for Time (min) for 10% hydrolysis, IIa: enzyme 100 nM, substrate 1 μM
T1 construct: 0.5 nM human thrombin (IIa)
Method: (§1) Enzyme assays (except factor VIIa assays, see below) were conducted in 20 mM Tris, 150 mM NaCl, pH 7.4 (TBS) at room temperature (22° C.). The final volume for all reaction mixtures was 2.0 ml. Fluorogenic substrates were dissolved in DMSO to a stock concentration of 10 mM. The 10 mM stock solution was diluted in TBS to the final working concentration prior to all assays. Enzyme was added to mixtures containing buffer components and substrate and the initial rate of substrate hydrolysis was measured as the change in fluorescent intensity over time, corresponding to the generation of the particular 6-amino-1-naphthalenesulfonamide fluorophore from the provided substrate. Quantitation of substrate hydrolysis was accomplished by establishing a standard curve from the appropriate fluorescent moiety. Fluorescence was monitored (continuously or discontinuously) using a Perkin Elmer fluorescence spectrophotometer, model MPF-44A, equipped with a standard chart recorder. The fluorophore was detected using monochrometers set at an excitation wavelength of 352 nm and an emission wavelength of 470 nm. Light scattering artifacts were minimized using a 399 nm cut off filter in the emission light beam.
(§2) The kinetic constants of substrate hydrolysis were determined using the non-linear least squares regression analysis program ENZFITTER (Cambridge, UK). This program was used to iteratively fit initial rates of substrate hydrolysis to the Michaelis-Menten equation and the kinetic constants of substrate hydrolysis (Km) and (kcat) were calculated.

factor Xa = factor Xa (Homo sapiens, UniProt P00742); assay: Fluorogenic enzyme assay (Example 5); type: biochemical; conditions: for Km / kcat /Km, Xa / kcat, Xa: Table 7; for Time (min) for 10% hydrolysis, Xa: enzyme 100 nM, substrate 1 μM
Method: as §1, §2

[2] = molecular target: activated protein C (APC) (Homo sapiens, UniProt P04070); assay: Fluorogenic enzyme assay (Example 5); type: biochemical; set-up: key to Hydrolysis kinetic constants, APC (symbol b): Slow substrate hydrolysis, no kinetic constants calculated; conditions: for Hydrolysis kinetic constants, APC (symbol b) / Km / kcat /Km, APC / kcat, APC: Table 7; for Time (min) for 10% hydrolysis, APC: enzyme 100 nM, substrate 1 μM
Method: as §1, §2

plasmin (Plm) = plasmin (Plm) (Homo sapiens, UniProt P00747); assay: Fluorogenic enzyme assay (Example 5); type: biochemical; conditions: enzyme 100 nM, substrate 1 μM; for Time (min) for 5% hydrolysis, Plm: footnote b
Method: as §1, §2

[3] = molecular target: tissue plasminogen activator (t-PA) (Homo sapiens, UniProt P00750); assay: Fluorogenic enzyme assay (Example 5); type: biochemical; conditions: enzyme 100 nM, substrate 1 μM; for hydrolysis, t-PA (symbol N.D.): after 24 hrs; for Time (min) for 5% hydrolysis, t-PA: footnote b
Method: as §1, §2

urokinase (u-PA) = urokinase (u-PA) (Homo sapiens, UniProt P00749); assay: Fluorogenic enzyme assay (Example 5); type: biochemical; conditions: enzyme 100 nM, substrate 1 μM; for hydrolysis, u-PA (symbol N.D.): after 24 hrs
Method: as §1, §2

Sequence of factor Xa (P00742 235-488 limits assumed): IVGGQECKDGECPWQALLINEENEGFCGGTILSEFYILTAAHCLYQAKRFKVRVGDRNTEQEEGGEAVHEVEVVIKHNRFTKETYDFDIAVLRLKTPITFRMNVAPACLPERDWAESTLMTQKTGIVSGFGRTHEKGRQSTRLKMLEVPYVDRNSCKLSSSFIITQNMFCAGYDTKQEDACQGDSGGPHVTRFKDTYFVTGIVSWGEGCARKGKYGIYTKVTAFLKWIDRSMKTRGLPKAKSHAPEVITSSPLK
Sequence of factor Xa (P00742 41-179 limits assumed): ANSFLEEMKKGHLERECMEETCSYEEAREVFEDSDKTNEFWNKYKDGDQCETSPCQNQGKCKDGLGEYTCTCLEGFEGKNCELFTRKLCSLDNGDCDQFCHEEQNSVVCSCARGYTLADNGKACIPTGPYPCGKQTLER
Sequence of plasmin (Plm) (P00747 581-810 limits assumed, species assumed): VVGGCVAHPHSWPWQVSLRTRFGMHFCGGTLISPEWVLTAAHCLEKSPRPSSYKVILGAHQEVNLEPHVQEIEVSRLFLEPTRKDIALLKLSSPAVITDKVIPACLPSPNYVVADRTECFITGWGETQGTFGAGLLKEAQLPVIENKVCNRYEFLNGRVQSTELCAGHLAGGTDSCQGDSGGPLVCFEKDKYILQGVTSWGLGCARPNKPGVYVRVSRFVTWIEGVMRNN
Sequence of plasmin (Plm) (P00747 97-580 limits assumed, species assumed): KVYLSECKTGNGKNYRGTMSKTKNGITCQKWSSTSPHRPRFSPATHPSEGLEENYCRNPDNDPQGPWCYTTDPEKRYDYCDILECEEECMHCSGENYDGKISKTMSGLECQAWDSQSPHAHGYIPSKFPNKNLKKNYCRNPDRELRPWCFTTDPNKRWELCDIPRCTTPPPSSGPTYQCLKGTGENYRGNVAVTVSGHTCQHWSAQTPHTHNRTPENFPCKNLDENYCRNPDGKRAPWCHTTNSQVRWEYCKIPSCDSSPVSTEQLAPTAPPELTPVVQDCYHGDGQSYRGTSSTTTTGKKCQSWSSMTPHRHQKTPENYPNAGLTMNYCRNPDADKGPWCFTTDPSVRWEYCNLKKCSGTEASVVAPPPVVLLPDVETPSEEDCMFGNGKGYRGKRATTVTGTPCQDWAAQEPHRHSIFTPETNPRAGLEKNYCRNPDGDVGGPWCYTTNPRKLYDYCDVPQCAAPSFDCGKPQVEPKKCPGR
Sequence of activated protein C (APC) (P04070 212-461 limits assumed): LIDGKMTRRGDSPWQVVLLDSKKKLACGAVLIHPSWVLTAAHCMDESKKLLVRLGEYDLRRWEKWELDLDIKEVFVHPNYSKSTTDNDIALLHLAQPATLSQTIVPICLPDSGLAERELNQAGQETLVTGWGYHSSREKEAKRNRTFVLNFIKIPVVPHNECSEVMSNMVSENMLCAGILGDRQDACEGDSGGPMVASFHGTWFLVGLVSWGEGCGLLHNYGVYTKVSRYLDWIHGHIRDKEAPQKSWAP
Sequence of activated protein C (APC) (P04070 43-197 limits assumed): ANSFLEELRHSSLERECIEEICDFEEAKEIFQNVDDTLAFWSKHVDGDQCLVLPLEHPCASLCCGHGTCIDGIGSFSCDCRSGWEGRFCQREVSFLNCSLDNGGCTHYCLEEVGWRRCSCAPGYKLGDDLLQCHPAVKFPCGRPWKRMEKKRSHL
Sequence of tissue plasminogen activator (t-PA) (P00750 36-562, species assumed): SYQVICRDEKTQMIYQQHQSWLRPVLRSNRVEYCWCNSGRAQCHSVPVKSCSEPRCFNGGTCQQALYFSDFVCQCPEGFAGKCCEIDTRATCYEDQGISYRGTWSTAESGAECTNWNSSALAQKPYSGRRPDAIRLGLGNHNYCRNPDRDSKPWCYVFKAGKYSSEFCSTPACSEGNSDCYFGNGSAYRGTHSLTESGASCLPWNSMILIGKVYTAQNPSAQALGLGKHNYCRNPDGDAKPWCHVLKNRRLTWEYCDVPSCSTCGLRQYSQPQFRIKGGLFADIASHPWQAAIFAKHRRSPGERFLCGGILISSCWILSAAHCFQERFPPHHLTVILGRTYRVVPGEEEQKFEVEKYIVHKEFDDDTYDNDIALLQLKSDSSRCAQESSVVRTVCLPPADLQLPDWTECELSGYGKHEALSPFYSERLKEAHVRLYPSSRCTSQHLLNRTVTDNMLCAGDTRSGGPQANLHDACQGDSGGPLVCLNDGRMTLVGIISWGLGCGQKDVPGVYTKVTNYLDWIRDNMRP

| Relative Fluorescence [1] | Emission Maxima [1] | Time (min) for 10% hydrolysis, IIa (thrombin (IIa)) | Km (factor Xa) | kcat /Km, Xa (factor Xa) | kcat, Xa (factor Xa) | Time (min) for 10% hydrolysis, Xa (factor Xa) | Time (min) for 10% hydrolysis, APC [2] | Compound | further results |
| --- | --- | --- | --- | --- | --- | --- | --- | --- | --- |
| 92 | 468 nm |  |  |  |  |  |  | CNS(=O)(=O)c1cccc2cc(N)ccc12 [ANSNR1 R2; H; CH3] |  |
|  |  | 76 min | 80 µM | 625 M⁻¹ s⁻¹ | 0.05 s⁻¹ | 45 min | 171 min | Br.N=C(N)NCCC[C@H](NC(=O)OCc1ccccc1)C(=O)Nc1ccc2c(S(=O)(=O)N3CCOCC3)cccc2c1 [(N^α -Z)ArgANSNR1 R2; morpholyl] | Hydrolysis kinetic constants, IIa (symbol b) (thrombin (IIa)): b; Hydrolysis kinetic constants, APC (symbol b) [2]: b; Time (min) for 5% hydrolysis, Plm (plasmin (Plm)): 1220 min; hydrolysis, t-PA (symbol N.D.) [3]: N.D. (Less than 5% hydrolysis after 24 hrs.); hydrolysis, u-PA (symbol N.D.) (urokinase (u-PA)): N.D. (Less than 5% hydrolysis after 24 hrs.) |
| 75 | 467 nm |  |  |  |  |  |  | Nc1ccc2c(S(=O)(=O)NCc3ccccc3)cccc2c1 [ANSNR1 R2; H; benzyl] |  |
| 68 | 473 nm |  |  |  |  |  |  | Nc1ccc2c(S(=O)(=O)N3CCCCC3)cccc2c1 [ANSNR1 R2; (CH2)5] |  |
| 89 | 470 nm |  |  |  |  |  |  | CCN(CC)S(=O)(=O)c1cccc2cc(N)ccc12 [ANSNR1 R2; C2 H5; C2 H5, 6-amino-1-(N,N-diethyl)naphthalenesulfonamide] |  |
| 41 | 476 nm |  |  |  |  |  |  | Nc1ccc2c(S(=O)(=O)N3CCOCC3)cccc2c1 [ANSNR1 R2; morpholyl] |  |
| 93 | 470 nm |  |  |  |  |  |  | CCCNS(=O)(=O)c1cccc2cc(N)ccc12 [ANSNR1 R2; H; C3 H7] |  |
|  |  | 34 min | 102 µM | 800 M⁻¹ s⁻¹ | 0.08 s⁻¹ | 36 min | 50 min | Br.CC(C)NS(=O)(=O)c1cccc2cc(NC(=O)[C@H](CCCNC(=N)N)NC(=O)OCc3ccccc3)ccc12 [(N^α -Z)ArgANSNR1 R2; H; i-C3 H7] | Km (thrombin (IIa)): 25 µM; kcat /Km, IIa (thrombin (IIa)): 1180 M⁻¹ s⁻¹; kcat, IIa (thrombin (IIa)): 0.03 s⁻¹; Km [2]: 343 µM; kcat /Km, APC [2]: 510 M⁻¹ s⁻¹; kcat, APC [2]: 0.17 s⁻¹; Time (min) for 5% hydrolysis, Plm (plasmin (Plm)): 1370 min; hydrolysis, t-PA (symbol N.D.) [3]: N.D. (Less than 5% hydrolysis after 24 hrs.); Time (min) for 10% hydrolysis, u-PA (urokinase (u-PA)): 1260 min |
|  |  | 165 min | 200 µM | 1290 M⁻¹ s⁻¹ | 0.26 s⁻¹ | 14 min | 1080 min | Br.CCN(CC)S(=O)(=O)c1cccc2cc(NC(=O)[C@H](CCCNC(=N)N)NC(=O)OCc3ccccc3)ccc12 [(N^α -Z)ArgANSNR1 R2; C2 H5; C2 H5, 6-(N^α -benzyloxycarbonyl-L-arginyl)amino-1-(N,N-diethyl)napthalenesulfonamide hydrobromides] | Hydrolysis kinetic constants, IIa (symbol b) (thrombin (IIa)): b; Time (min) for 5% hydrolysis, Plm (plasmin (Plm)): 1370 min; hydrolysis, t-PA (symbol N.D.) [3]: N.D. (Less than 5% hydrolysis after 24 hrs.); hydrolysis, u-PA (symbol N.D.) (urokinase (u-PA)): N.D. (Less than 5% hydrolysis after 24 hrs.) |
|  |  | 38 min | 160 µM | 714 M⁻¹ s⁻¹ | 0.11 s⁻¹ | 25 min | 120 min | Br.CNS(=O)(=O)c1cccc2cc(NC(=O)[C@H](CCCNC(=N)N)NC(=O)OCc3ccccc3)ccc12 [(N^α -Z)ArgANSNR1 R2; H; CH3] | Km (thrombin (IIa)): 62.5 µM; kcat /Km, IIa (thrombin (IIa)): 640 M⁻¹ s⁻¹; kcat, IIa (thrombin (IIa)): 0.04 s⁻¹; Hydrolysis kinetic constants, APC (symbol b) [2]: b; Time (min) for 5% hydrolysis, Plm (plasmin (Plm)): 1620 min; Time (min) for 5% hydrolysis, t-PA [3]: 1280 min; Time (min) for 10% hydrolysis, u-PA (urokinase (u-PA)): 660 min |
|  |  | 30 min | 36.8 µM | 979 M⁻¹ s⁻¹ | 0.04 s⁻¹ | 45 min | 12 min | Br.CCCCCNS(=O)(=O)c1cccc2cc(NC(=O)[C@H](CCCNC(=N)N)NC(=O)OCc3ccccc3)ccc12 [(N^α -Z)ArgANSNR1 R2; H; C5 H11] | Km (thrombin (IIa)): 41.4 µM; kcat /Km, IIa (thrombin (IIa)): 242 M⁻¹ s⁻¹; kcat, IIa (thrombin (IIa)): 0.01 s⁻¹; Km [2]: 436 µM; kcat /Km, APC [2]: 1830 M⁻¹ s⁻¹; kcat, APC [2]: 0.8 s⁻¹; Time (min) for 10% hydrolysis, Plm (plasmin (Plm)): 510 min; Time (min) for 5% hydrolysis, t-PA [3]: 1280 min; Time (min) for 10% hydrolysis, u-PA (urokinase (u-PA)): 43 min |
|  |  | 27 min | 125 µM | 593 M⁻¹ s⁻¹ | 0.07 s⁻¹ | 40 min | 15 min | Br.CCCNS(=O)(=O)c1cccc2cc(NC(=O)[C@H](CCCNC(=N)N)NC(=O)OCc3ccccc3)ccc12 [(N^α -Z)ArgANSNR1 R2; H; C3 H7] | Km (thrombin (IIa)): 22.2 µM; kcat /Km, IIa (thrombin (IIa)): 1580 M⁻¹ s⁻¹; kcat, IIa (thrombin (IIa)): 0.04 s⁻¹; Km [2]: 320 µM; kcat /Km, APC [2]: 1470 M⁻¹ s⁻¹; kcat, APC [2]: 0.47 s⁻¹; Time (min) for 5% hydrolysis, Plm (plasmin (Plm)): 1620 min; hydrolysis, t-PA (symbol N.D.) [3]: N.D. (Less than 5% hydrolysis after 24 hrs.); Time (min) for 10% hydrolysis, u-PA (urokinase (u-PA)): 220 min |
| 65 | 472 nm |  |  |  |  |  |  | CN(C)S(=O)(=O)c1cccc2cc(N)ccc12 [ANSNR1 R2; CH3; CH3] |  |
| 112 | 465 nm |  |  |  |  |  |  | CC(C)(C)NS(=O)(=O)c1cccc2cc(N)ccc12 [ANSNR1 R2; H; t-C4 H9] |  |
| 90 | 469 nm |  |  |  |  |  |  | CCCCCNS(=O)(=O)c1cccc2cc(N)ccc12 [ANSNR1 R2; H; C5 H11] |  |
|  |  | 34 min | 114 µM | 487 M⁻¹ s⁻¹ | 0.06 s⁻¹ | 45 min | 45 min | Br.CC(C)(C)NS(=O)(=O)c1cccc2cc(NC(=O)[C@H](CCCNC(=N)N)NC(=O)OCc3ccccc3)ccc12 [(N^α -Z)ArgANSNR1 R2; H; t-C4 H9] | Km (thrombin (IIa)): 24 µM; kcat /Km, IIa (thrombin (IIa)): 930 M⁻¹ s⁻¹; kcat, IIa (thrombin (IIa)): 0.02 s⁻¹; Km [2]: 738 µM; kcat /Km, APC [2]: 540 M⁻¹ s⁻¹; kcat, APC [2]: 0.4 s⁻¹; Time (min) for 5% hydrolysis, Plm (plasmin (Plm)): 910 min; hydrolysis, t-PA (symbol N.D.) [3]: N.D. (Less than 5% hydrolysis after 24 hrs.); Time (min) for 10% hydrolysis, u-PA (urokinase (u-PA)): 1260 min |
| 78 | 466 nm |  |  |  |  |  |  | CCNS(=O)(=O)c1cccc2cc(N)ccc12 [ANSNR1 R2; H; C2 H5] |  |
| 63 | 467 nm |  |  |  |  |  |  | CCCCNS(=O)(=O)c1cccc2cc(N)ccc12 [ANSNR1 R2; H; C4 H9] |  |
| 76 | 468 nm |  |  |  |  |  |  | CC(C)NS(=O)(=O)c1cccc2cc(N)ccc12 [ANSNR1 R2; H; i-C3 H7] |  |
| 101 | 466 nm |  |  |  |  |  |  | Nc1ccc2c(S(=O)(=O)NC3CCCCC3)cccc2c1 [ANSNR1 R2; H; cyclo-C6 H11] |  |
| 100 | 468 nm |  |  |  |  |  |  | CC(C)CNS(=O)(=O)c1cccc2cc(N)ccc12 [ANSNR1 R2; H; i-C4 H9] |  |
| 96 | 469 nm |  |  |  |  |  |  | Nc1ccc2c(S(=O)(=O)N3CCCCCC3)cccc2c1 [ANSNR1 R2; (CH2)6] |  |

From patent US5399487A, “6-peptidylamino-1-naphthalenesulfonamides useful as fluorogenic proteolytic enzyme substrates” (Haematologic Technologies, Inc., priority 1993, dated 1995)
